The test system of assay [1] is Isolates of P. falciparum from Thailand. Conditions: cited from earlier work.
For assay [2], the system named is chloroquine-sensitive West African clone (D-6). Description: In vitro susceptibility (radiolabelled hypoxanthine incorporation, semi-automated microdilution), Example 1, clone D-6. Format: cell-based, P. falciparum. The conditions noted are these: Plasmodium falciparum. How it is done: (§1) Throughout the examples, incorporation of radiolabelled hypoxanthine was used to measure a synchronous growth of the malarial parasites and inhibition of incorporation was the measured parameter of the parasites' rsponse to the drugs. Semi-automated microdilution techniques as disclosed by R. E. Desjardins et al, Antimicrob.
(§2) First, the antimalarial properties of verapamil (a calcium channel blocker "reversing compound") in vitro were studied. […] The drug combinations were dosed in fixed ratios of their 50% inhibitory concentrations.
Background: In broth dilution the organism is exposed to a series of concentrations in liquid medium.

Assay [3] has as its system chloroquine-resistant clone from Indochina (W-2). Description: microbe, parasite or virus in culture. The conditions noted are these: Plasmodium falciparum. How it is done: as §1, §2
(§3) The IC50 's of each drug in combination set forth in Table 1 were then calculated as a fraction of the control IC50 and plotted as a fraction of one unit of IC50 in FIG. 1. […] The line connecting each unit of IC50 for each clone represents the additivity of drug effects.

Assay [4] has as its system chloroquine-resistant clone from Brazil (IEC 306). Nature of the assay: microbe, parasite or virus in culture. Format: cell-based, P. falciparum. Conditions: Plasmodium falciparum. Here is the method:
as §1, §2, §3

The test system of assay [5] is chloroquine-sensitive West African clone (D-6). Nature of the assay: Effect of verapamil on chloroquine sensitivity, Example 2, clone D-6. The conditions noted are these: Plasmodium falciparum, clone D-6, CQ sensitive, IC50 + 1SD. Format: cell-based, P. falciparum.
Description: as §1

Assay [6] has as its system chloroquine-resistant clone from Indochina (W-2). Description: microbe, parasite or virus in culture. Format: cell-based, P. falciparum. The conditions noted are these: for IC50: Plasmodium falciparum.
Description: as §1

The subject of assay [7] is malarial parasites. Description: Antimalarial properties of verapamil in vitro. Format: cell-based, P. falciparum. Here is the method: as §1, §2
The test system of assay [8] is malarial parasite growth or hypoxanthine uptake. Nature of the assay: Effect of verapamil alone on malarial parasite growth or hypoxanthine uptake in vitro. The conditions noted are these: 1×10^-6 M and 2×10^-6 M. It counts as cell-based, P. falciparum.
Description: as §1

Read-outs that look alike come from different tables or passages of the source.

Consider `OC(c1cc(C(F)(F)F)nc2c(C(F)(F)F)cccc12)C1CCCCN1` (stereo not shown) [mefloquine], for which the “resistance of isolates in vitro” value in assay [1] is “resistant”.
As for `CCN(CC)CCCC(C)Nc1ccnc2cc(Cl)ccc12` (stereo not shown) [chloroquine], the IC50 amounted to 4.4 nM in assay [2] (read-out: IC50 of chloroquine in drug combination, CQ 25 nM/VER 75 μM fixed ratio, clone D-6); 8 nM in assay [2] (read-out: IC50 of chloroquine in drug combination, CQ 50 nM/VER 50 μM fixed ratio, clone D-6); 11.4 nM in assay [2] (read-out: IC50 of chloroquine in drug combination, CQ 75 nM/VER 25 μM fixed ratio, clone D-6); 14.1 nM in assay [2] (read-out: fifty percent inhibitory concentration (IC50), single drug chloroquine, chloroquine alone, clone D-6); 1.5 nM in assay [3] (read-out: IC50 of chloroquine in drug combination, CQ 25 nM/VER 75 μM fixed ratio, clone W-2); 1.3 nM in assay [3] (read-out: IC50 of chloroquine in drug combination, CQ 50 nM/VER 50 μM fixed ratio, clone W-2). Also, the IC50 in assay [3] (read-out: IC50 of chloroquine in drug combination, CQ 75 nM/VER 25 μM fixed ratio, clone W-2) was determined as 3.8 nM; in assay [4] (read-out: IC50 of chloroquine in drug combination, CQ 25 nM/VER 75 μM fixed ratio, clone IEC-306) it was 2.8 nM; in assay [4] (read-out: IC50 of chloroquine in drug combination, CQ 50 nM/VER 50 μM fixed ratio, clone IEC-306), 6.3 nM; in assay [4] (read-out: IC50 of chloroquine in drug combination, CQ 75 nM/VER 25 μM fixed ratio, clone IEC-306) it was 11.7 nM; in assay [4] (read-out: fifty percent inhibitory concentration (IC50), single drug chloroquine, chloroquine alone, clone IEC-306) it was 52.3 nM; in assay [5] (read-out: IC50 of chloroquine + 1 × 10^-6 M VER, with 1 × 10^-6 M verapamil), 7.8 ± 0.6 nM. The IC50 in assay [5] (read-out: IC50 of chloroquine + 2 × 10^-6 M VER, with 2 × 10^-6 M verapamil) was found to be 8.8 ± 0.3 nM; in assay [6] (read-out: IC50 of chloroquine + 1 × 10^-6 M VER) it was 8.4 ± 0.4 nM; in assay [6] (read-out: IC50 of chloroquine + 2 × 10^-6 M VER), 5.6 ± 0.3 nM. The “sensitivity of chloroquine-resistant clone to chloroquine in presence of verapamil (FIGS. 2 and 3)” value in assay [6] (constant concentration of verapamil, compared with chloroquine-sensitive West African clone) is on record as “as sensitive to the chloroquine treatment as the chloroquine-sensitive West African clone”. In assay [1], the “resistance of isolates in vitro” value is on record as “resistant”.
For the molecule `COc1ccc(CCN(C)CCCC(C#N)(c2ccc(OC)c(OC)c2)C(C)C)cc1OC` (stereo not shown) [verapamil], the IC50 in assay [7] (Plasmodium falciparum, read-out: inhibitory concentration (IC50)) fell in the range of 6 to 8 µg/mL. Besides, the “fold less potent than chloroquine or mefloquine” value in assay [7] (verapamil vs chloroquine or mefloquine, in vitro) is reported as 1,000 fold. Besides, the “effect on malarial parasite growth or hypoxanthine uptake in vitro” value in assay [8] was “no significant effects”.
In the case of `C=C[C@H]1C[N@@]2CC[C@H]1C[C@H]2[C@H](O)c1ccnc2ccc(OC)cc12` [quinine], the “resistance of isolates in vitro” value in assay [1] was “resistant”.

The values are drawn from patent US4897403A, “Antimalarial compositions and methods” (The United States of America as represented by the …, priority 1986, dated 1990).
